The term ΔTm denotes the change in melting temperature against a reference sample.

What all share (conditions): Compound concentration 10.0 uM, Protein concentration 2.0 uM
In experiment [1] the target is Bromodomain-containing protein 2 (Homo sapiens) (UniProt P25440).
In experiment [2] the target is Histone acetyltransferase KAT2B (Homo sapiens) (UniProt Q92831).
The target in experiment [3] is Nuclear body protein SP140-like protein (Homo sapiens) (UniProt Q9H930).
Experiment [4] addresses Bromodomain-containing protein 2 (Homo sapiens) (UniProt P25440). The source holds these as a separate data set.

Sequence of Bromodomain-containing protein 2 (Homo sapiens) (P25440 whole entry, looked up): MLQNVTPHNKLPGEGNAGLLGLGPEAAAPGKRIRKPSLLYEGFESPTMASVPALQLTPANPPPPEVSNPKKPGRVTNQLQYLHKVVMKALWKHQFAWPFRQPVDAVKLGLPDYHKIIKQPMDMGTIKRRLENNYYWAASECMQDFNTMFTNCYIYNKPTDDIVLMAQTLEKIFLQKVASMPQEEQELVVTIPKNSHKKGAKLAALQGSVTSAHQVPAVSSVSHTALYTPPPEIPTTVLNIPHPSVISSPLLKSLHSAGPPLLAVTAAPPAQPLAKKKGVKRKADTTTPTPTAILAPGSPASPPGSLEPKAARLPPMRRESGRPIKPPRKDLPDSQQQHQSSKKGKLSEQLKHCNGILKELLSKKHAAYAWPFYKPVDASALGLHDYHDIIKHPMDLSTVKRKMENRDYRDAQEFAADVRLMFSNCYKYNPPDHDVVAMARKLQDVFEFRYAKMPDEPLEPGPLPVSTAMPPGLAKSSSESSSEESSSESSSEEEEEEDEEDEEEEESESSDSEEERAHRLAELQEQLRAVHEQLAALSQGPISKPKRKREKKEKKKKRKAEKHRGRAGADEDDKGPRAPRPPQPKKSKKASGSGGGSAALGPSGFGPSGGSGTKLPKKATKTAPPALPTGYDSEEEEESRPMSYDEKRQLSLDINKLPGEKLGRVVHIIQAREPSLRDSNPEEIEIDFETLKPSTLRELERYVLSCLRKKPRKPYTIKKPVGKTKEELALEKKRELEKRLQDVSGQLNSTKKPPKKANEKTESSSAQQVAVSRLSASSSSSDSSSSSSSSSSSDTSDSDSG
Sequence of Nuclear body protein SP140-like protein (Homo sapiens) (Q9H930 whole entry): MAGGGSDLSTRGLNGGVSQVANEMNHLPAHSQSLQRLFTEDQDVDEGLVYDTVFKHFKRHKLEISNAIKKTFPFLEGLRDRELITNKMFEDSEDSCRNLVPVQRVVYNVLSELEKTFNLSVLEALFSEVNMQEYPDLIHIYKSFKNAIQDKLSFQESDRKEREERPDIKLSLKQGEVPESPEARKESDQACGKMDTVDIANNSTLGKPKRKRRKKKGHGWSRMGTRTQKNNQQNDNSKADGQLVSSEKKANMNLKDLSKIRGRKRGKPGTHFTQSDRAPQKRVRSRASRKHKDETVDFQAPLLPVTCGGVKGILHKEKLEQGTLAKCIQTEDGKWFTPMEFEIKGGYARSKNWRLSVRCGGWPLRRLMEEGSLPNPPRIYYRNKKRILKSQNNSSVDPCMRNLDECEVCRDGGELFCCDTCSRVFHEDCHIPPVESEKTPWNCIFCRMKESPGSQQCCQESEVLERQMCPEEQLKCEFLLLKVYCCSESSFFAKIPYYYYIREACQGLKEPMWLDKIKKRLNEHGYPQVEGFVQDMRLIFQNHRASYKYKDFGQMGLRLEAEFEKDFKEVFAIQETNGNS
Sequence of Histone acetyltransferase KAT2B (Homo sapiens) (Q92831 whole entry, looked up): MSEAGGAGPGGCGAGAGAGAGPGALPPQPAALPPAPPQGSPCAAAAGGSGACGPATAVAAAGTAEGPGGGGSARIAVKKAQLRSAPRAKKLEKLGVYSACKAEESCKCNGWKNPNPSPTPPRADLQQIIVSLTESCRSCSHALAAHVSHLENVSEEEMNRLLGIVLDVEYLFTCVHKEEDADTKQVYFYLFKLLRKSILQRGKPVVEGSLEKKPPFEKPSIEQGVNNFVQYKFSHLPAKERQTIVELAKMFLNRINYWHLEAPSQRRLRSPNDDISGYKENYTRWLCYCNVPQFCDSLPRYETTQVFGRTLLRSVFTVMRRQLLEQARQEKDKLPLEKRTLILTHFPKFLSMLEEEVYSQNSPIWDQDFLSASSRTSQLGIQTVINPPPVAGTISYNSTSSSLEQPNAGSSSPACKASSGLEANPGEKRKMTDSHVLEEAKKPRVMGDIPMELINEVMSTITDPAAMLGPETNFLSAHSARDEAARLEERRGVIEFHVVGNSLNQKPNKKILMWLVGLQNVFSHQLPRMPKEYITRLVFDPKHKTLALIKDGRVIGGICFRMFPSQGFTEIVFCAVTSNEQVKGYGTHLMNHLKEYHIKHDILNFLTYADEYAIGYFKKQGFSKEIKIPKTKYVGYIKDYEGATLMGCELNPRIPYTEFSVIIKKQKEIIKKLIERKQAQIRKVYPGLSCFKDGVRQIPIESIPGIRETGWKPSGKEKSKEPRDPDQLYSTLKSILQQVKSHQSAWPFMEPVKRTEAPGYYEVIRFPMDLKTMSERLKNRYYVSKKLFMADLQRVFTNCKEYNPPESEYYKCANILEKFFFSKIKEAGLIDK

For `Cc1sc2c(c1C)C(c1ccc(Cl)cc1)=N[C@@H](CC(=O)OC(C)(C)C)c1nnc(C)n1-2`, the ΔTm in experiment [1] was 8.16 °C; in experiment [2] it was 0.7 °C; in experiment [3], -0.07 °C; in experiment [4] it was 5.58 °C.

Source of the values: ChEMBL document CHEMBL4649996, “Selective inhibition of BET bromodomains” (Nature, 2010).
